# Target: T1, MyD88^TIR (Homo sapiens, UniProt Q99836)
# T1 construct: MyD88 (residues 148–296); 6xHis; made in house; host or cells: E. coli BL21 (DE3)
# Test: T‐Surf phage library (P8 and P3) selection against MyD88^TIR, four rounds, NGS read counts
# Type: binding
# Settings: for P8_MyD88 Rank (after) / P8_MyD88 Rank (before): P8 library; for P3_MyD88 Rank (after) / P3_MyD88 Rank (before): P3 library; for Population: P8_MyD88 pool: P8 T-Surf phage library, 4th round of selection against MyD88 TIR, share of NGS reads
# Description: T‐Surf libraries were screened against the immobilized TIR domains of two major human TLR adaptor proteins, MAL^TIR and MyD88^TIR, allowing cross‐species selection of TIR‐binding motifs with 190 946 TIR‐derived peptides in a single binding assay (Scheme 1). Enriched phage pools from the fourth round of selection were analyzed using NGS after barcoding the peptide‐coding regions of the phage pools.
# Phage display screening was performed by coating two wells of a 96‐well plate (Maxisorp, Thermo Fisher Scientific) with 100 µL of 5 µg mL^−1 TIR domains overnight; then, the coated wells were blocked with 200 µL of blocking buffer (0.2% BSA in PBS) and set aside for 1 h at 4 °C with gentle shaking. Next, 100 µL of the phage library was added to the wells and incubated for 1 h at room temperature (RT; 20 – 22 °C) with gentle shaking. The plate was washed four times with PBS containing 0.5% Tween‐20; the bound phages were eluted by adding 100 µL of 100 mM HCl to each well. The elute was neutralized with 10 µL of 1.0 M Tris‐HCl (pH 11.0). E. coli TG1 cells were grown to the log phase (A600 = ≈0.6), and 1 mL of the culture was incubated with 100 µL of the eluted phages for 30 min at 37 °C, with shaking at 200 rpm. Next, 1 µL of M13KO7 helper phages was added, followed by incubation for 45 min at 37 °C, with shaking. Subsequently, the cells were transferred to 25 mL of 2× yeast extract tryptone/carbenicillin/kanamycin medium and incubated overnight at 37 °C with shaking at 200 rpm. The amplified phages were precipitated with 20% PEG‐8000/2.5 M NaCl to be used for the next round of selection.
# The naïve T‐Surf libraries in P8 and P3 and the enriched phage pools after four rounds were barcoded for NGS as previously described.^[ [59] ^] Briefly, 5 µL of the phage pool was used as a template for 20 cycles of a 50 µL PCR reaction using […] each of forward and reverse barcoded primers and PrimeSTAR Max DNA Polymerase. The PCR products were purified using Expin Gel SV (GeneAll). The NGS samples were quantified using qPCR, following the qPCR Quantification Protocol Guide (KAPA Library Quantification kits for Illumina Sequencing Platform), and qualified using the TapeStation High Sensitivity D1000 ScreenTape (Agilent Technologies). The indexed libraries were further sequenced by Macrogen (Seoul, Republic of Korea) using the NovaSeq platform (Illumina) with 100 bp paired‐end reads. The reads were demultiplexed by barcodes and filtered for an average Phred quality score of at least 30, followed by trimming the flanking consensus sequences using Cutadapt (version 2.3). Peptide sequence populations were analyzed according to the read counts.
# [1] = 4R selection against MyD88, rank after grouping
# [2] = 4R selection against MyD88, rank before grouping
# [3] = P8_MyD88: rank by count after grouping
# [4] = P8_MyD88: rank by count before grouping
# [5] = selection against MyD88 TIR, rank by count after grouping
# [6] = selection against MyD88 TIR, rank by count before grouping
# [7] = selection against MyD88, rank after grouping
# [8] = selection against MyD88, rank before grouping
# [9] = P3_MyD88: rank by count after grouping
# [10] = P3_MyD88: rank by count before grouping
# [11] = selection against MyD88, rank by count after grouping
# [12] = selection against MyD88, rank by count before grouping
# [13] = P8_MyD88: rank by NGS read count after grouping
# [14] = P8_MyD88: rank by NGS read count before grouping
# T1 sequence (Q99836 148-296): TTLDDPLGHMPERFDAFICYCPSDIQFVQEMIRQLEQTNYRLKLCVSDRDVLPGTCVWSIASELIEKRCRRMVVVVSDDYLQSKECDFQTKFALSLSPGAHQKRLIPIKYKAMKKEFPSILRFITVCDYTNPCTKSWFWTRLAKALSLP
sequence,measurement,setting,value
GPQELEWCYERLVTKF,P8_MyD88 Rank (after),[1],604
same,P8_MyD88 Rank (before),[2],2278
DPQDLDWFYKRLVSLL,Rank (after),[3],121
same,Rank (before),[4],724
NYATSRWALDELVRIF,P8_MyD88 Rank (after),[5],227
same,P8_MyD88 Rank (before),[6],419
SSFREGVWRLPEMSTK,P3_MyD88 Rank (after),[1],660
same,P3_MyD88 Rank (before),[2],3149
LKCGEPYFWSKLRYSI,P3_MyD88 Rank (after),[7],578
same,P3_MyD88 Rank (before),[8],2406
NQWRNSRTAAANLSGW,Rank (after),[9],122
same,Rank (before),[10],3476
DPQEQLSFCERLITVF,P8_MyD88 Rank (after),[11],743
same,P8_MyD88 Rank (before),[12],2995
YILYEDQTIKFVFRDFIQEL,Rank (after),[3],385
same,Rank (before),[4],988
LGYQWIDWEFFVGIED,P8_MyD88 Rank (after),[11],756
same,P8_MyD88 Rank (before),[12],3321
YAASPWWFDELLQIA,P8_MyD88 Rank (after),[1],633
same,P8_MyD88 Rank (before),[2],1740
DPQVLVWLYERPFRQI,P8_MyD88 Rank (after),[1],629
same,P8_MyD88 Rank (before),[2],2644
SEDTRNNFLYHLYEAL,Rank (after),[3],100
same,Rank (before),[4],106
same,Population,,0.022%
DSLFWDRLLYSLQFTE,Rank (after),[13],933
same,Rank (before),[14],3097
LGYHWLDWEYFVSIED,Rank (after),[3],451
same,Rank (before),[4],3240
YASSSWELDELLRIPY,Rank (after),[13],966
same,Rank (before),[14],1904
WALDVLLQFLHARELF,P8_MyD88 Rank (after),[11],723
same,P8_MyD88 Rank (before),[12],1412
FISDLYEALTRAGILA,Rank (after),[13],964
same,Rank (before),[14],1341
NELVRVWSSKANSRVG,P3_MyD88 Rank (after),[11],716
same,P3_MyD88 Rank (before),[12],3402
DWVWVYRLPNLEGPAG,Rank (after),[13],979
same,Rank (before),[14],2403
FRGEDIADNFLSHLVVAL,P8_MyD88 Rank (after),[5],234
same,P8_MyD88 Rank (before),[6],371
THSHNAVPAAANLSGW,Rank (after),[9],404
same,Rank (before),[10],3289
QYSHTLLAHTSKFPDE,Rank (after),[9],432
same,Rank (before),[10],2847
SSFREGLWCLRELSKK,Rank (after),[9],394
same,Rank (before),[10],3156
QSAWALNQLLQIIDWH,P8_MyD88 Rank (after),[5],196
same,P8_MyD88 Rank (before),[6],269
RISAFHKQLVMAVKAQ,P3_MyD88 Rank (after),[1],674
same,P3_MyD88 Rank (before),[2],2608
SSFREGLWRLLELSET,Rank (after),[9],145
same,Rank (before),[10],1199
DYANSSWALDELWLIL,P8_MyD88 Rank (after),[7],510
same,P8_MyD88 Rank (before),[8],2544
LFWDRLIYAVSDVASA,Rank (after),[3],111
same,Rank (before),[4],119
same,Population,,0.02%
NYADSSWALDELLAIM,Rank (after),[3],164
same,Rank (before),[4],184
same,Population,,0.00732%
DPQDLDWFYERLASGI,Rank (after),[13],882
same,Rank (before),[14],2782
WDYASNVELFWGRMNY,P8_MyD88 Rank (after),[1],586
same,P8_MyD88 Rank (before),[2],1640
LTEEIVNHILKRLAEL,Rank (after),[3],170
same,Rank (before),[4],200
PQDLGWFYERLISQILK,Rank (after),[3],386
same,Rank (before),[4],1201
SENYATSAWALEELVL,P3_MyD88 Rank (after),[5],214
same,P3_MyD88 Rank (before),[6],2961
IDDDHLTYLVRLLYSLHVT,P8_MyD88 Rank (after),[1],669
same,P8_MyD88 Rank (before),[2],3630
SNFRKGLSRLLELSKK,P3_MyD88 Rank (after),[7],572
same,P3_MyD88 Rank (before),[8],3283
DWVWDYLLPNLEGQR,P8_MyD88 Rank (after),[5],264
same,P8_MyD88 Rank (before),[6],550
RYIMPHPQELIQQKQP,P3_MyD88 Rank (after),[5],249
same,P3_MyD88 Rank (before),[6],2561
PQDLEWFYERMVGLIL,Rank (after),[13],879
same,Rank (before),[14],3429
SLRRNLVSNLIEEFIR,P3_MyD88 Rank (after),[1],580
same,P3_MyD88 Rank (before),[2],3076
MFGGDTFMIFWILLA,P8_MyD88 Rank (after),[1],593
same,P8_MyD88 Rank (before),[2],3670
